PubChem BioAssay (NCI)
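Dose response: 5 concentrations. Exposure: 48 h. Format: 96-well plates. Endpoint: linear interpolation; highest concentration if not reached. GI50: concentration for 50% inhibition of growth. At the TGI there is no net growth.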

Key:
Assay in all cases: NCI tumour cell line growth inhibition, 48 h
NCI-H460 lung = tested on: NCI-H460 lung
NCI/ADR-RES ovarian = tested on: NCI/ADR-RES ovarian
EKVX NSCLC = tested on: EKVX NSCLC
A549 NSCLC = tested on: A549 NSCLC
A498 renal = tested on: A498 renal
COLO 205 colon = tested on: COLO 205 colon
TK-10 renal = tested on: TK-10 renal
MDA-MB-435 = tested on: MDA-MB-435
KM12 colon = tested on: KM12 colon
MALME-3M melanoma = tested on: MALME-3M melanoma
NCI-H23 lung = tested on: NCI-H23 lung
HT29 colon = tested on: HT29 colon
OVCAR-8 ovarian = tested on: OVCAR-8 ovarian
SF-539 CNS = tested on: SF-539 CNS
OVCAR-4 ovarian = tested on: OVCAR-4 ovarian
SR leukemia = tested on: SR leukemia
SK-MEL-28 melanoma = tested on: SK-MEL-28 melanoma
HCC-2998 colon = tested on: HCC-2998 colon
RPMI-8226 leukemia = tested on: RPMI-8226 leukemia
HL-60(TB) leukemia = tested on: HL-60(TB) leukemia
HS 578T breast = tested on: HS 578T breast
PC-3 prostate = tested on: PC-3 prostate
MDA-MB-231 breast = tested on: MDA-MB-231 breast
K-562 leukemia = tested on: K-562 leukemia
SK-MEL-2 melanoma = tested on: SK-MEL-2 melanoma
UO-31 renal = tested on: UO-31 renal
SF-268 CNS = tested on: SF-268 CNS
U251 CNS = tested on: U251 CNS
MCF7 breast = tested on: MCF7 breast
DU-145 prostate = tested on: DU-145 prostate
MOLT-4 leukemia = tested on: MOLT-4 leukemia
IGROV1 ovarian = tested on: IGROV1 ovarian
786-0 renal = tested on: 786-0 renal
HOP-92 NSCLC = tested on: HOP-92 NSCLC
ACHN renal = tested on: ACHN renal
HCT-15 colon = tested on: HCT-15 colon
OVCAR-5 ovarian = tested on: OVCAR-5 ovarian
SK-OV-3 ovarian = tested on: SK-OV-3 ovarian
M14 melanoma = tested on: M14 melanoma
BT-549 breast = tested on: BT-549 breast
LOX IMVI melanoma = tested on: LOX IMVI melanoma
SN12C renal = tested on: SN12C renal
OVCAR-3 ovarian = tested on: OVCAR-3 ovarian
UACC-62 melanoma = tested on: UACC-62 melanoma
HOP-62 NSCLC = tested on: HOP-62 NSCLC
SK-MEL-5 melanoma = tested on: SK-MEL-5 melanoma
CCRF-CEM leukemia = tested on: CCRF-CEM leukemia
SW-620 colon = tested on: SW-620 colon
HCT-116 colon = tested on: HCT-116 colon
NCI-H522 lung = tested on: NCI-H522 lung
NCI-H226 lung = tested on: NCI-H226 lung
SNB-19 CNS = tested on: SNB-19 CNS
SF-295 CNS = tested on: SF-295 CNS

With `COC(=O)[C@@H](C)C[C@H](Cc1ccccc1)NC(=O)c1csc([C@@H](C[C@H](C(C)C)N(C)C(=O)[C@@H](NC(=O)[C@H]2CCCCN2C)C(C(F)(F)F)C(F)(F)F)OC(C)=O)n1` as the molecule, how does the GI50 (NCI-H460 lung) read?
The GI50 was 57.6 nM.

And the TGI (NCI-H460 lung)?
Its TGI is greater than 16.7 µM.

What about the GI50 (NCI/ADR-RES ovarian) of the same molecule?
The GI50 was 346 nM.

And the TGI (NCI/ADR-RES ovarian)?
Its TGI is greater than 16.7 µM.

What about the GI50 (EKVX NSCLC) of the same molecule?
Its GI50 is 102 nM.

What about the TGI (EKVX NSCLC) of the same molecule?
Its TGI is greater than 16.7 µM.

What about the GI50 (A549 NSCLC) of the same molecule?
Its GI50 is 114 nM.

What about the TGI (A549 NSCLC) of the same molecule?
Its TGI is greater than 16.7 µM.

And the GI50 (A498 renal)?
The GI50 was 82.9 nM.

And the TGI (A498 renal)?
Its TGI is greater than 16.7 µM.

And the GI50 (COLO 205 colon)?
Its GI50 is 65.8 nM.

What about the TGI (COLO 205 colon) of the same molecule?
The TGI was 556 nM.

What about the GI50 (TK-10 renal) of the same molecule?
Its GI50 is 4.6 µM.

What about the TGI (TK-10 renal) of the same molecule?
The TGI was greater than 16.7 µM.

What about the GI50 (MDA-MB-435) of the same molecule?
Its GI50 is 4.37 nM.

And the TGI (MDA-MB-435)?
The TGI was 21.9 nM.

And the GI50 (KM12 colon)?
Its GI50 is 44.8 nM.

What about the TGI (KM12 colon) of the same molecule?
Its TGI is 13.9 µM.

What about the GI50 (MALME-3M melanoma) of the same molecule?
The GI50 was 43.7 nM.

And the TGI (MALME-3M melanoma)?
Its TGI is greater than 16.7 µM.

What about the GI50 (NCI-H23 lung) of the same molecule?
The GI50 was 62.4 nM.

What about the TGI (NCI-H23 lung) of the same molecule?
The TGI was greater than 16.7 µM.

What about the GI50 (HT29 colon) of the same molecule?
Its GI50 is 49.5 nM.

What about the TGI (HT29 colon) of the same molecule?
Its TGI is 256 nM.

And the GI50 (OVCAR-8 ovarian)?
Its GI50 is 92.7 nM.

And the TGI (OVCAR-8 ovarian)?
The TGI was greater than 16.7 µM.

And the GI50 (SF-539 CNS)?
The GI50 was 39.7 nM.

And the TGI (SF-539 CNS)?
The TGI was 154 nM.

And the GI50 (OVCAR-4 ovarian)?
The GI50 was 309 nM.

And the TGI (OVCAR-4 ovarian)?
Its TGI is greater than 16.7 µM.

And the GI50 (SR leukemia)?
Its GI50 is 7.43 nM.

What about the TGI (SR leukemia) of the same molecule?
The TGI was greater than 16.7 µM.

What about the GI50 (SK-MEL-28 melanoma) of the same molecule?
The GI50 was 102 nM.

What about the TGI (SK-MEL-28 melanoma) of the same molecule?
Its TGI is greater than 16.7 µM.

And the GI50 (HCC-2998 colon)?
The GI50 was 74.7 nM.

What about the TGI (HCC-2998 colon) of the same molecule?
Its TGI is greater than 16.7 µM.

What about the GI50 (RPMI-8226 leukemia) of the same molecule?
Its GI50 is 59 nM.

What about the TGI (RPMI-8226 leukemia) of the same molecule?
The TGI was 3.22 µM.

What about the GI50 (HL-60(TB) leukemia) of the same molecule?
Its GI50 is 13.4 nM.

And the TGI (HL-60(TB) leukemia)?
Its TGI is 115 nM.

What about the GI50 (HS 578T breast) of the same molecule?
The GI50 was 47 nM.

And the TGI (HS 578T breast)?
Its TGI is 15.4 µM.

What about the GI50 (PC-3 prostate) of the same molecule?
Its GI50 is 45.2 nM.

And the TGI (PC-3 prostate)?
Its TGI is 3.87 µM.

And the GI50 (MDA-MB-231 breast)?
The GI50 was 73.4 nM.

And the TGI (MDA-MB-231 breast)?
Its TGI is 3.06 µM.

What about the GI50 (K-562 leukemia) of the same molecule?
The GI50 was 12.4 nM.

And the TGI (K-562 leukemia)?
The TGI was greater than 16.7 µM.

What about the GI50 (SK-MEL-2 melanoma) of the same molecule?
Its GI50 is 77.7 nM.

What about the TGI (SK-MEL-2 melanoma) of the same molecule?
Its TGI is greater than 16.7 µM.

And the GI50 (UO-31 renal)?
The GI50 was 224 nM.

What about the TGI (UO-31 renal) of the same molecule?
Its TGI is greater than 16.7 µM.

What about the GI50 (SF-268 CNS) of the same molecule?
The GI50 was 108 nM.

And the TGI (SF-268 CNS)?
Its TGI is greater than 16.7 µM.

What about the GI50 (U251 CNS) of the same molecule?
The GI50 was 65.5 nM.

What about the TGI (U251 CNS) of the same molecule?
The TGI was greater than 16.7 µM.

And the GI50 (MCF7 breast)?
The GI50 was 11.8 nM.

And the TGI (MCF7 breast)?
Its TGI is greater than 16.7 µM.

What about the GI50 (DU-145 prostate) of the same molecule?
Its GI50 is 47 nM.

What about the TGI (DU-145 prostate) of the same molecule?
Its TGI is greater than 16.7 µM.

And the GI50 (MOLT-4 leukemia)?
Its GI50 is 63.1 nM.

What about the TGI (MOLT-4 leukemia) of the same molecule?
Its TGI is greater than 16.7 µM.

And the GI50 (IGROV1 ovarian)?
The GI50 was 66.6 nM.

What about the TGI (IGROV1 ovarian) of the same molecule?
Its TGI is greater than 16.7 µM.

And the GI50 (786-0 renal)?
Its GI50 is 53.5 nM.

What about the TGI (786-0 renal) of the same molecule?
Its TGI is 3.53 µM.

What about the GI50 (HOP-92 NSCLC) of the same molecule?
The GI50 was 18.5 nM.

And the TGI (HOP-92 NSCLC)?
The TGI was 1040 nM.

What about the GI50 (ACHN renal) of the same molecule?
The GI50 was 111 nM.

What about the TGI (ACHN renal) of the same molecule?
The TGI was greater than 16.7 µM.

What about the GI50 (HCT-15 colon) of the same molecule?
The GI50 was 64.5 nM.

What about the TGI (HCT-15 colon) of the same molecule?
Its TGI is greater than 16.7 µM.

What about the GI50 (OVCAR-5 ovarian) of the same molecule?
Its GI50 is 64.3 nM.

What about the TGI (OVCAR-5 ovarian) of the same molecule?
Its TGI is greater than 16.7 µM.

What about the GI50 (SK-OV-3 ovarian) of the same molecule?
The GI50 was 70 nM.

And the TGI (SK-OV-3 ovarian)?
Its TGI is greater than 16.7 µM.

What about the GI50 (M14 melanoma) of the same molecule?
Its GI50 is 33.3 nM.

And the TGI (M14 melanoma)?
The TGI was 115 nM.

And the GI50 (BT-549 breast)?
Its GI50 is 54 nM.

What about the TGI (BT-549 breast) of the same molecule?
Its TGI is 779 nM.

What about the GI50 (LOX IMVI melanoma) of the same molecule?
Its GI50 is 53 nM.

What about the TGI (LOX IMVI melanoma) of the same molecule?
The TGI was greater than 16.7 µM.

And the GI50 (SN12C renal)?
Its GI50 is 106 nM.

What about the TGI (SN12C renal) of the same molecule?
The TGI was greater than 16.7 µM.

And the GI50 (OVCAR-3 ovarian)?
The GI50 was 21 nM.

And the TGI (OVCAR-3 ovarian)?
Its TGI is 253 nM.

And the GI50 (UACC-62 melanoma)?
The GI50 was 15.4 nM.

And the TGI (UACC-62 melanoma)?
Its TGI is greater than 16.7 µM.

What about the GI50 (HOP-62 NSCLC) of the same molecule?
Its GI50 is 65.1 nM.

And the TGI (HOP-62 NSCLC)?
Its TGI is greater than 16.7 µM.

What about the GI50 (SK-MEL-5 melanoma) of the same molecule?
The GI50 was 27.5 nM.

And the TGI (SK-MEL-5 melanoma)?
Its TGI is 1810 nM.

What about the GI50 (CCRF-CEM leukemia) of the same molecule?
The GI50 was 53.9 nM.

What about the TGI (CCRF-CEM leukemia) of the same molecule?
The TGI was 9.05 µM.

What about the GI50 (SW-620 colon) of the same molecule?
Its GI50 is 67.3 nM.

What about the TGI (SW-620 colon) of the same molecule?
The TGI was greater than 16.7 µM.

And the GI50 (HCT-116 colon)?
The GI50 was 57 nM.

And the TGI (HCT-116 colon)?
Its TGI is greater than 16.7 µM.

What about the GI50 (NCI-H522 lung) of the same molecule?
Its GI50 is 12.5 nM.

And the TGI (NCI-H522 lung)?
The TGI was 264 nM.

And the GI50 (NCI-H226 lung)?
Its GI50 is 3.94 µM.

And the TGI (NCI-H226 lung)?
Its TGI is greater than 16.7 µM.

And the GI50 (SNB-19 CNS)?
Its GI50 is 65.8 nM.

And the TGI (SNB-19 CNS)?
The TGI was greater than 16.7 µM.

And the GI50 (SF-295 CNS)?
The GI50 was 36.8 nM.

And the TGI (SF-295 CNS)?
The TGI was greater than 16.7 µM.
